Assay [1] has as its system extracellular dopamine in the striatum. Put plainly: Microdialysis: extracellular dopamine in the rat striatum. Format: in vivo. To be noted: for dose-response of extracellular dopamine: ascending doses (COMPOUND NO. 1 0.63, 2.5, 10 mg/kg; risperidone 0.16, 0.63, 2.5 mg/kg). As to the method: (§1) Compounds (as a Na salt) were stored, dissolved, and administered according to detailed instructions accompanying each compound. Compounds were dissolved in a solvent consisting of 10% BCD (beta cyclodextrin) and administered subcutaneously.
(§2) Male Sprague Dawley rats weighing 275-325 g at the start of the experiment were individually housed in a temperature-controlled colony room with a 12-h light/dark cycle. Food and water was available ad libitum throughout the experiment. The housing conditions and care of the animals were in accordance with the “Guide for the Care and Use of Laboratory Animals” (Institute of Laboratory Animal Resources on Life Sciences, National Research Council, 1996).
(§3) Guide cannula were stored in 95% ETOH prior to surgery, whereas surgical tools underwent heat sterilization (250 °C) immediately before each surgery. Rats were anesthetized using a ketamine hydrochloride (100 mg/kg, IP) xylazine (12 mg/kg) mixture. After adequate anesthesia had been determined (using toe and tail pinch procedures), rats were placed into a stereotaxic instrument. The skull region was wiped with a 2% Betadine solution and a rostrocaudal incision was made to expose the surface of the skull. Bilateral guide cannula (20 gauge; Plastics One) were chronically implanted over the medial striatum (A/P: +0.5, M/L: ±2.5, D/V: −2.0; Paxinos & Watson, 1998) and secured using four skull screws and cranioplastic cement. The cannula need to be implanted at an angle to obtain the minimum inter-cannula distance needed for our probe leash used during microdialysis sampling. Following surgery, body temperature was maintained using a heating pad and the rats were monitored until fully conscious. Rats were then individually housed and assessed daily by monitoring general activity, body weight, and feces. Rats were monitored for signs of an infection and cefazolin (100 mg/kg; intramuscular) was available as needed. Notation was made of any animal administered antibiotic.
(§4) Rats were given at least five days to recover prior to microdialysis sampling. Approximately 18 hr prior to sampling, a microdialysis probe (24 gauge; 2-3 mm exposed membrane; 13000 MWCO) encased in a spring leash and attached to a liquid swivel connected to a balancing arm was inserted into the guide cannula of an awake rat. The probe was secured in place by screwing a threaded portion of the probe leash onto the guide cannula. The rat was then placed into a behavioral chamber (Omnitech, Columbus Ohio) equipped with a fan and house light (10W), and food and water was available ad libitum. On the day of the experiment, dialysis buffer consisting of 5 mM glucose, 140 mM NaCl, 1.4 mM CaCl2, 1.2 mM MgCl2, and 0.15% phosphate buffer saline, pH 7.4, was perfused through the probe (2.0 μl/min) at least two hr prior to sample collection. Twenty-min dialysis samples were then collected for two hr to determine basal glycine levels. Rats were then injected (intraperitoneal) with vehicle or one dose of the test compound, and 30-min samples were collected for up to 10 hr. Samples were split for separate chromatographic evaluation of glycine and dopamine, and frozen (−80 °C) until analyzed.
(§5) Rats, with the dialysis probes in place, were given an overdose of pentobarbital, and the brains fixed by intracardiac infusion of PBS-formalin. Coronal brain sections were 100 μM thick and stained with cresyl violet to verify probe placements. Probes were left in place as the animal was perfused in order to check for the presence of blood in the probe tract.
For dopamine analysis, samples were placed in an ESA (Chelmsford, Mass.) Model 540 autosampler connected to an HPLC system with electrochemical detection. Separation was achieved by pumping the samples through a 15 cm C18 reversed phase column (ESA, Inc.) and then samples were reduced/oxidized using coulometric detection.

For assay [2], the system named is extracellular glycine in the striatum. Put plainly: Microdialysis: extracellular glycine in the rat striatum. To be noted: for dose-response of extracellular glycine: ascending doses (COMPOUND NO. 1 0.63, 2.5, 10 mg/kg; risperidone 0.16, 0.63, 2.5 mg/kg). The class given is in vivo. As to the method:
as §1, §2, §3, §4, §5
The concentrations of glycine and dopamine in dialysate samples was determined using a Waters Alliance 2690 HPLC system with fluorometeric detection or an ESA coulometric electrochemical detection HPLC system, respectively. Dialyis samples were split between the two systems enabling both dopamine and glycine to be measured in each sample. A Waters Spherisorb ODS2 column (5 μM, 4.6×250 mm) was used to separate the amino acids.

The mark [3] stands for this setting: risperidone alone, 0.16 mg/kg (lowest dose).
Where [4] appears, read: COMPOUND NO. 1 alone, 10 mg/kg (highest dose), 10 mg/kg.

The values that follow come from patent US20060154919A1, “Combination of a glycine transporter (GLYT1) inhibitor and an antipsychotic for the treatment of symptoms of schizophrenia as well as its preparation and use thereof” (priority 2004, published 2006).

“Also recorded” adds a separate entry of the source.

Consider `Cc1nc2n(c(=O)c1CCN1CCC(c3noc4cc(F)ccc34)CC1)CCCC2` [risperidone, 3-[2-[4-(6-fluoro-1,2-benzisoxazol-3-yl)piperidino]ethyl]-2-methyl-6,7,8,9-tetrahydro-4H-pyrido-[1,2-a]pyrimidin-4-one, reference compound], for which the “dose-response of extracellular dopamine” value in assay [1] is reported as “dose-dependent elevation”. Further, the “threshold dose for elevation in extracellular dopamine” value in assay [1] (risperidone alone) came to 0.16 mg/kg. Also, the “elevation in extracellular dopamine” value in assay [1] (setting [3]) is given as “approximately 50%”. Further, the “expected increase in extracellular dopamine” value in assay [1] (risperidone alone, 1.0 mg/kg, expected from FIGS. 1C-1D) is given as 300%. The “increase in extracellular dopamine” value in assay [1] (risperidone alone, two higher doses (0.63 and 2.5 mg/kg)) was 3-4 fold. Moreover, the “dose-response of extracellular glycine” value in assay [2] was “dose-dependent elevation”. The “threshold dose for elevation in extracellular glycine” value in assay [2] (risperidone alone) was 0.16 mg/kg. Moreover, the “effect on extracellular glycine” value in assay [2] (setting [3]) is “without effect”; in assay [2] (risperidone alone, at the dose examined in the combination (1.0 mg/kg)), “modest rise”. Moreover, the “increase in extracellular glycine” value in assay [2] (risperidone alone, 2.5 mg/kg (highest dose)) was 2.5 fold.

Turning to `CN(C/C=C(/C#Cc1ccc(-c2ccoc2)cc1)c1ccccc1)CC(=O)O` [COMPOUND NO. 1], the “reduction in extracellular dopamine” value in assay [1] (COMPOUND NO. 1 alone, 0.63 mg/kg (lowest dose)) is listed as around 50%. Moreover, the “effect on extracellular dopamine” value in assay [1] (COMPOUND NO. 1 alone, 0.63 mg/kg (lowest dose), 0.63 mg/kg) is “significant reduction; also recorded: reduced extracellular dopamine”; in assay [1] (COMPOUND NO. 1 alone, 2.5 mg/kg), “normalized; also recorded: returned to normal”; in assay [1] (setting [4]), “remained unaltered; also recorded: without effect”. The “dose-response of extracellular dopamine” value in assay [1] was “biphasic”. Also, the “increase in extracellular glycine” value in assay [2] (setting [4]) was 2.5 fold. The “dose-response of extracellular glycine” value in assay [2] is listed as “dose-dependent increase; also recorded: dose-dependent elevation”.
